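Exposure lasted 48 hours, with cells grown in 96-well plates and compounds tested at five concentrations. GI50 marks 50% less growth.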 Active and inactive are the calls of the source. Rule as the data show it: active = GI50 up to about 1.1 µM and inactive = higher.
Assays:
Assay in all cases: NCI-60 cell line screen, 48 h
EKVX = test system: EKVX
Hs-578T = test system: Hs-578T
NCI-H23 = test system: NCI-H23
PC-3 = test system: PC-3
UO-31 = test system: UO-31
KM12 = test system: KM12
OVCAR-5 = test system: OVCAR-5
SR = test system: SR
SK-OV-3 = test system: SK-OV-3
MDA-MB-231 = test system: MDA-MB-231
CAKI-1 = test system: CAKI-1
RPMI-8226 = test system: RPMI-8226
NCI-H522 = test system: NCI-H522
UACC-257 = test system: UACC-257
786-0 = test system: 786-0
SF-268 = test system: SF-268
CCRF-CEM = test system: CCRF-CEM
MCF7 = test system: MCF7
OVCAR-8 = test system: OVCAR-8
SK-MEL-5 = test system: SK-MEL-5
U-251 = test system: U-251
HT-29 = test system: HT-29
MDA-MB-435 = test system: MDA-MB-435
HCT-15 = test system: HCT-15
M14 = test system: M14
UACC-62 = test system: UACC-62
HCT-116 = test system: HCT-116
SW-620 = test system: SW-620
HOP-92 = test system: HOP-92
TK-10 = test system: TK-10
NCI-H460 = test system: NCI-H460
RXF 393 = test system: RXF 393
A549 = test system: A549
LOX IMVI = test system: LOX IMVI
MDA-N = test system: MDA-N
ACHN = test system: ACHN
SNB-19 = test system: SNB-19
SK-MEL-28 = test system: SK-MEL-28
OVCAR-4 = test system: OVCAR-4
IGROV-1 = test system: IGROV-1
SK-MEL-2 = test system: SK-MEL-2
HCC 2998 = test system: HCC 2998
SN12C = test system: SN12C
SNB-75 = test system: SNB-75
K562 = test system: K562
DU-145 = test system: DU-145
MOLT-4 = test system: MOLT-4
NCI/ADR-RES = test system: NCI/ADR-RES
SF-295 = test system: SF-295
A498 = test system: A498
BT-549 = test system: BT-549
HOP-62 = test system: HOP-62
NCI-H226 = test system: NCI-H226
OVCAR-3 = test system: OVCAR-3
Malme-3M = test system: Malme-3M
SF-539 = test system: SF-539
HL-60 = test system: HL-60
COLO 205 = test system: COLO 205
T47D = test system: T47D

SMILES: NC(=O)C(N)CC12CC3CC(CC(C3)C1)C2 (configuration not stated)
- GI50 (EKVX): 29.6 µM (inactive)
- GI50 (Hs-578T): 19.1 µM (inactive)
- GI50 (NCI-H23): 25.4 µM (inactive)
- GI50 (PC-3): 18.2 µM (inactive)
- GI50 (UO-31): 21.7 µM (inactive)
- GI50 (KM12): 20.1 µM (inactive)
- GI50 (OVCAR-5): 22.8 µM (inactive)
- GI50 (SR): 17.2 µM (inactive)
- GI50 (SK-OV-3): 33.3 µM (inactive)
- GI50 (MDA-MB-231): 14 µM (inactive)
- GI50 (CAKI-1): 27.3 µM (inactive)
- GI50 (RPMI-8226): 19.6 µM (inactive)
- GI50 (NCI-H522): 15 µM (inactive)
- GI50 (UACC-257): 27.9 µM (inactive)
- GI50 (786-0): 22.3 µM (inactive)
- GI50 (SF-268): 22.4 µM (inactive)
- GI50 (CCRF-CEM): 26.7 µM (inactive)
- GI50 (MCF7): 20 µM (inactive)
- GI50 (OVCAR-8): 23.9 µM (inactive)
- GI50 (SK-MEL-5): 15.2 µM (inactive)
- GI50 (U-251): 17.5 µM (inactive)
- GI50 (HT-29): 28.1 µM (inactive)
- GI50 (MDA-MB-435): 16 µM (inactive)
- GI50 (HCT-15): 31.6 µM
- GI50 (M14): 19.3 µM (inactive)
- GI50 (UACC-62): 14.5 µM (inactive)
- GI50 (HCT-116): 17 µM (inactive)
- GI50 (SW-620): 33 µM (inactive)
- GI50 (HOP-92): 15.5 µM (inactive)
- GI50 (TK-10): 29.6 µM (inactive)
- GI50 (NCI-H460): 34.4 µM (inactive)
- GI50 (RXF 393): 16.3 µM (inactive)
- GI50 (A549): 45.6 µM (inactive)
- GI50 (LOX IMVI): 16 µM (inactive)
- GI50 (MDA-N): 13.6 µM (inactive)
- GI50 (ACHN): 32.4 µM (inactive)
- GI50 (SNB-19): 23.7 µM (inactive)
- GI50 (SK-MEL-28): 20.1 µM (inactive)
- GI50 (OVCAR-4): 17.5 µM (inactive)
- GI50 (IGROV-1): > 10 µM (inactive)
- GI50 (SK-MEL-2): 24.6 µM (inactive)
- GI50 (HCC 2998): 21.6 µM (inactive)
- GI50 (SN12C): 21 µM (inactive)
- GI50 (SNB-75): 32.7 µM (inactive)
- GI50 (K562): 28.9 µM (inactive)
- GI50 (DU-145): 12.6 µM (inactive)
- GI50 (MOLT-4): 21 µM (inactive)
- GI50 (NCI/ADR-RES): 25.2 µM (inactive)
- GI50 (SF-295): 23.3 µM (inactive)

SMILES: O=C(CN1CCOCC1)c1ccc2c(c1)oc(=O)n2CCN1CCCCC1
- GI50 (EKVX): 82.2 µM (inactive)
- GI50 (Hs-578T): 7.8 µM (inactive)
- GI50 (NCI-H23): > 100 µM (inactive)
- GI50 (PC-3): > 100 µM (inactive)
- GI50 (UO-31): > 100 µM (inactive)
- GI50 (KM12): > 100 µM (inactive)
- GI50 (OVCAR-5): > 100 µM (inactive)
- GI50 (SR): > 100 µM (inactive)
- GI50 (SK-OV-3): > 100 µM (inactive)
- GI50 (MDA-MB-231): > 100 µM (inactive)
- GI50 (CAKI-1): > 100 µM (inactive)
- GI50 (RPMI-8226): > 100 µM (inactive)
- GI50 (UACC-257): > 100 µM (inactive)
- GI50 (786-0): > 100 µM (inactive)
- GI50 (SF-268): 48.3 µM (inactive)
- GI50 (CCRF-CEM): > 100 µM (inactive)
- GI50 (MCF7): > 100 µM (inactive)
- GI50 (A498): > 100 µM (inactive)
- GI50 (OVCAR-8): > 100 µM (inactive)
- GI50 (SK-MEL-5): > 100 µM (inactive)
- GI50 (BT-549): > 100 µM (inactive)
- GI50 (U-251): > 100 µM (inactive)
- GI50 (HT-29): > 100 µM (inactive)
- GI50 (MDA-MB-435): > 100 µM (inactive)
- GI50 (HCT-15): > 100 µM
- GI50 (M14): > 100 µM (inactive)
- GI50 (UACC-62): > 100 µM (inactive)
- GI50 (HCT-116): > 100 µM (inactive)
- GI50 (SW-620): > 100 µM (inactive)
- GI50 (TK-10): > 100 µM (inactive)
- GI50 (NCI-H460): > 100 µM (inactive)
- GI50 (RXF 393): > 100 µM (inactive)
- GI50 (LOX IMVI): > 100 µM (inactive)
- GI50 (MDA-N): > 100 µM (inactive)
- GI50 (ACHN): > 100 µM (inactive)
- GI50 (SNB-19): > 100 µM (inactive)
- GI50 (HOP-62): > 100 µM (inactive)
- GI50 (SK-MEL-28): > 100 µM (inactive)
- GI50 (IGROV-1): > 100 µM (inactive)
- GI50 (SK-MEL-2): > 100 µM (inactive)
- GI50 (NCI-H226): > 100 µM (inactive)
- GI50 (OVCAR-3): > 100 µM (inactive)
- GI50 (SN12C): > 100 µM (inactive)
- GI50 (SNB-75): 0.179 µM (active)
- GI50 (K562): > 100 µM (inactive)
- GI50 (Malme-3M): > 100 µM (inactive)
- GI50 (SF-539): > 100 µM (inactive)
- GI50 (DU-145): > 100 µM (inactive)
- GI50 (MOLT-4): > 100 µM (inactive)
- GI50 (NCI/ADR-RES): > 100 µM (inactive)
- GI50 (HL-60): > 100 µM (inactive)
- GI50 (COLO 205): > 100 µM (inactive)
- GI50 (SF-295): > 100 µM (inactive)

SMILES: O=C1[C@@H](O)[C@@H]2CCCC[C@@]23CCCN13
- GI50 (EKVX): > 100 µM (inactive)
- GI50 (Hs-578T): > 100 µM (inactive)
- GI50 (NCI-H23): > 100 µM (inactive)
- GI50 (PC-3): > 100 µM (inactive)
- GI50 (UO-31): > 100 µM (inactive)
- GI50 (KM12): > 100 µM (inactive)
- GI50 (OVCAR-5): > 100 µM (inactive)
- GI50 (SR): > 100 µM (inactive)
- GI50 (SK-OV-3): > 100 µM (inactive)
- GI50 (MDA-MB-231): > 100 µM (inactive)
- GI50 (CAKI-1): > 100 µM (inactive)
- GI50 (RPMI-8226): > 100 µM (inactive)
- GI50 (NCI-H522): > 100 µM (inactive)
- GI50 (UACC-257): > 100 µM (inactive)
- GI50 (786-0): > 100 µM (inactive)
- GI50 (SF-268): > 100 µM (inactive)
- GI50 (CCRF-CEM): > 100 µM (inactive)
- GI50 (MCF7): > 100 µM (inactive)
- GI50 (A498): > 100 µM (inactive)
- GI50 (OVCAR-8): > 100 µM (inactive)
- GI50 (SK-MEL-5): > 100 µM (inactive)
- GI50 (U-251): > 100 µM (inactive)
- GI50 (HT-29): > 100 µM (inactive)
- GI50 (T47D): > 100 µM (inactive)
- GI50 (MDA-MB-435): > 100 µM (inactive)
- GI50 (HCT-15): > 100 µM
- GI50 (M14): > 100 µM (inactive)
- GI50 (UACC-62): > 100 µM (inactive)
- GI50 (HCT-116): > 100 µM (inactive)
- GI50 (HOP-92): 36.6 µM (inactive)
- GI50 (TK-10): > 100 µM (inactive)
- GI50 (NCI-H460): > 100 µM (inactive)
- GI50 (RXF 393): > 100 µM (inactive)
- GI50 (A549): > 100 µM (inactive)
- GI50 (LOX IMVI): > 100 µM (inactive)
- GI50 (MDA-N): > 100 µM (inactive)
- GI50 (ACHN): > 100 µM (inactive)
- GI50 (SNB-19): > 100 µM (inactive)
- GI50 (HOP-62): > 100 µM (inactive)
- GI50 (SK-MEL-28): > 100 µM (inactive)
- GI50 (OVCAR-4): > 100 µM (inactive)
- GI50 (IGROV-1): > 100 µM (inactive)
- GI50 (SK-MEL-2): > 100 µM (inactive)
- GI50 (NCI-H226): > 100 µM (inactive)
- GI50 (HCC 2998): > 100 µM (inactive)
- GI50 (SN12C): > 100 µM (inactive)
- GI50 (SNB-75): 37.6 µM (inactive)
- GI50 (K562): > 100 µM (inactive)
- GI50 (Malme-3M): > 100 µM (inactive)
- GI50 (DU-145): > 100 µM (inactive)
- GI50 (MOLT-4): > 100 µM (inactive)
- GI50 (NCI/ADR-RES): > 100 µM (inactive)
- GI50 (HL-60): > 100 µM (inactive)
- GI50 (COLO 205): > 100 µM (inactive)
- GI50 (SF-295): > 100 µM (inactive)

— ChEMBL document CHEMBL1201862, “PubChem BioAssay data set” (2004)
